Patent US8124647B2 (priority 2002, dated 2012)

Columns and labels:
human androgen receptor [1] = target: T1, human androgen receptor (Homo sapiens, UniProt P10275); test: cell-based; conditions: in the presence of 1 nM DHT
T1 construct: expressed in transfected cells; host or cells: CHO cells, cell line CHO-AR-pMMTV-LUC 1G12-A5-CA
T1 sequence (P10275 1-920): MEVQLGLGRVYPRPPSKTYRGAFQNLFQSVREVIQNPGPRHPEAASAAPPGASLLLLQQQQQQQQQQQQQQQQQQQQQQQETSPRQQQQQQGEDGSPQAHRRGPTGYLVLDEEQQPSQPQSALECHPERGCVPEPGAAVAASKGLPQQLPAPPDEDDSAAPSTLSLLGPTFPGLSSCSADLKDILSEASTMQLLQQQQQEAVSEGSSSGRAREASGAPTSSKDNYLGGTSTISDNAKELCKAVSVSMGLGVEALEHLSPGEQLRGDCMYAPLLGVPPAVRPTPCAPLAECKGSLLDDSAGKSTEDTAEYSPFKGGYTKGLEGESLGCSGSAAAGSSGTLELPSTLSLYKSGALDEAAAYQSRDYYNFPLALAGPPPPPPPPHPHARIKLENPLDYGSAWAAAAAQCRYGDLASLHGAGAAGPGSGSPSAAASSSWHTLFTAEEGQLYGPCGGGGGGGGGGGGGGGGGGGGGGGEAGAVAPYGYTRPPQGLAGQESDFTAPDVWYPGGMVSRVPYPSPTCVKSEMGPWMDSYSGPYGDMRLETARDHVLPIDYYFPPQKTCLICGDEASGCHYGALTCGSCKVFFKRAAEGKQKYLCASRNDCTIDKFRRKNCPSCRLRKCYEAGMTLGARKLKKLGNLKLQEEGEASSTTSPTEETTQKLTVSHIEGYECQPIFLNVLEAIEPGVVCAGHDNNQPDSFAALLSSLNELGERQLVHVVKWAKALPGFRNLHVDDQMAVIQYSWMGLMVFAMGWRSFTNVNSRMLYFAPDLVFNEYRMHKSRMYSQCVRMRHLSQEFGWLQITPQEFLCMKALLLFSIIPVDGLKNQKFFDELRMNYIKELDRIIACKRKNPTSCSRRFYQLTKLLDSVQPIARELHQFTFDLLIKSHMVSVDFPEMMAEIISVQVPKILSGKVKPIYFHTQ
Procedure: (§1) Compounds were tested for their Androgen Receptor activity in a transactivation assay and in a binding assay.
(§2) The (anti-)androgenic activity of test compounds (EC50 and intrinsic activity) was determined in an in vitro bioassay of Chinese hamster ovary (CHO) cells stably transfected with the human androgen receptor expression plasmid and a reporter plasmid in which the MMTV-promoter is linked to the luciferase reporter gene. The cell-line CHO-AR-pMMTV-LUC 1G12-A5-CA is described in Schoonen et al. (2000), Journal of Steroid Biochemistry and Molecular Biology 74(4):213-222. The antiandrogenic activity of a test compound was determined by the inhibition of the transactivation via the androgen receptor of the enzyme luciferase in the presence of 1 nM DHT (5α-dihydrotestosterone, 17β-hydroxy-5α-androstan-3-one). Intrinsic activity of antiandrogenic activity was determined in the presence of the reference antiandrogen 2-Hydroxy-2-methyl-N-(4-nitro-3-trifluoromethyl-phenyl)-propionamide(Hydroxyflutamide), and set at 100%. For androgenic activity, maximal intrinsic activity in the presence of 100 nM DHT was set at 100%.

human androgen receptor [2] = target: T1, human androgen receptor; test: androgenic activity (EC50 and intrinsic activity), transactivation bioassay in CHO-AR-pMMTV-LUC cells (Table 4); assay type: cell-based
Procedure: as §1, §2

[3] = antiandrogenic activity, read-out: ant EC50
[4] = androgenic activity, read-out: ago EC50

SMILES | EC50 (human androgen receptor [1]; [3]) | EC50 (human androgen receptor [2]; [4]) | EC50 (human androgen receptor [1]; ant EC50, antiandrogenic activity) | EC50 (human androgen receptor [2]; ago EC50, androgenic activity)
O=C(NCC1CC1)c1ccc2c(Sc3ccccc3[N+](=O)[O-])cn(Cc3cc(F)cc(F)c3)c2c1 [Compound 41] | > 10000 nM | < 5 nM |  | 
CC(C)CNC(=O)c1ccc2c(Sc3ccccc3[N+](=O)[O-])cn(Cc3cc(F)cc(F)c3)c2c1 [Compound 42] | > 10000 nM | 5 to 100 nM |  | 
O=C(NCc1ccccc1)c1ccc2c(Sc3ccccc3[N+](=O)[O-])cn(Cc3cc(F)cc(F)c3)c2c1 [Compound 43] | < 1000 nM | 5 to 100 nM |  | 
O=C(NC1CC1)c1ccc2c(Sc3ccccc3[N+](=O)[O-])cn(Cc3cc(F)cc(F)c3)c2c1 [Compound 44] | > 10000 nM | < 5 nM |  | 
CCNC(=O)c1ccc2c(Sc3ccccc3[N+](=O)[O-])cn(Cc3cc(F)cc(F)c3)c2c1 [Compound 45] | > 10000 nM | < 5 nM |  | 
CC(C)NC(=O)c1ccc2c(Sc3ccccc3[N+](=O)[O-])cn(Cc3cc(F)cc(F)c3)c2c1 [Compound 46] | 5 to 100 nM | 5 to 100 nM |  | 
CNC(=O)c1ccc2c(Sc3ccccc3[N+](=O)[O-])cn(Cc3cc(F)cc(F)c3)c2c1 [Compound 47, 1-(3,5-Difluoro-benzyl)-3-(2-nitro-phenylsulfanyl)-1H-indole-6-carboxylic acid methylamide] | > 10000 nM | < 5 nM |  | 
CCCNC(=O)c1ccc2c(Sc3ccccc3[N+](=O)[O-])cn(Cc3cc(F)cc(F)c3)c2c1 [Compound 48] | < 1000 nM | 5 to 100 nM |  | 
CN(C)C(=O)c1ccc2c(Sc3ccccc3[N+](=O)[O-])cn(Cc3cc(F)cc(F)c3)c2c1 [Compound 49] | > 10000 nM | < 5 nM |  | 
O=[N+]([O-])c1ccccc1Sc1cn(Cc2cc(F)cc(F)c2)c2cc(F)ccc12 [Compound 50] | > 10000 nM | 5 to 100 nM |  | 
O=[N+]([O-])c1ccccc1Sc1cn(Cc2cc(F)cc(F)c2)c2cccc(F)c12 [Compound 51] | > 10000 nM | < 5 nM |  | 
O=[N+]([O-])c1ccccc1Sc1cn(Cc2cc(F)cc(F)c2)c2ccccc12 [Compound 52] | > 10000 nM | 5 to 100 nM |  | 
O=[N+]([O-])c1ccccc1Sc1cn(Cc2cc(F)cc(F)c2)c2ccc(F)cc12 [Compound 53] | > 10000 nM | 5 to 100 nM |  | 
O=[N+]([O-])c1ccccc1Sc1cn(Cc2cc(F)cc(F)c2)c2cccc(Cl)c12 [Compound 54] | > 10000 nM | 5 to 100 nM |  | 
Cc1cccc2c1c(Sc1ccccc1[N+](=O)[O-])cn2Cc1cc(F)cc(F)c1 [Compound 55] | > 10000 nM | 5 to 100 nM |  | 
Nc1ccc2c(Sc3ccccc3[N+](=O)[O-])cn(Cc3cc(F)cc(F)c3)c2c1 [Compound 57, 1-(3,5-Difluoro-benzyl)-3-(2-nitro-phenylsulfanyl)-1H-indol-6-ylamine] | > 10000 nM | < 1000 nM |  | 
CC(=O)Nc1ccc2c(Sc3ccccc3[N+](=O)[O-])cn(Cc3cc(F)cc(F)c3)c2c1 [Compound 58, N-[1-(3,5-Difluoro-benzyl)-3-(2-nitro-phenylsulfanyl)-1H-indol-6-yl]-acetamide] | > 10000 nM | < 5 nM |  | 
O=C(Nc1ccc2c(Sc3ccccc3[N+](=O)[O-])cn(Cc3cc(F)cc(F)c3)c2c1)C(F)(F)F [Compound 59, N-[1-(3,5-Difluoro-benzyl)-3-(2-nitro-phenylsulfanyl)-1H-indol-6-yl]-2,2,2-trifluoro-acetamide] | > 10000 nM | < 5 nM |  | 
O=[N+]([O-])c1ccc2c(Sc3ccccc3[N+](=O)[O-])cn(Cc3cc(F)cc(F)c3)c2c1 [Compound 60] |  |  | > 10000 nM | < 5 nM
COc1ccc2c(S(=O)(=O)c3ccccc3[N+](=O)[O-])cn(Cc3cc(F)cc(F)c3)c2c1 [Compound 62, 1-(3,5-Difluoro-benzyl)-6-methoxy-3-(2-nitro-benzenesulfonyl)-1H-indole] | > 10000 nM | < 5 nM |  | 
COc1ccc2c(Sc3ccccc3[N+](=O)[O-])cn(Cc3cc(F)cc(F)c3)c2c1 [Compound 63, 1-(3,5-Difluoro-benzyl)-6-methoxy-3-(2-nitro-phenylsulfanyl)-1H-indole] | > 10000 nM | < 5 nM |  | 
